A word on the kon: it is a measure of how fast the partners come together. As usually defined, the Kd is a measure of binding affinity in units of concentration. Higher therefore signals weaker binding. The IC50 is the concentration that inhibits the measured activity by half. Read a high IC50 as lower potency.

Where two headings read alike, the source gives them in different places.

Results on 9 molecules are retold here after paper PMC8537658 (Pharmaceuticals, 2021).

In one experiment the target is SARS-CoV-2 RBD peptide (Severe acute respiratory syndrome coronavirus 2, UniProt P0DTC2). Briefly: biochemical. Type of experiment: binding. As to conditions: for koff: read-out: RBD kdis; for kon: read-out: RBD kon.
The next experiment has as its target T1, ACE2 (Homo sapiens, UniProt Q9BYF1).
T1 construct: purchased Sino Biological
Description: Bio-layer interferometry, binding to immobilized ACE2-His. The conditions noted are these: for kon: read-out: ACE2 kon; for Kd: 1:1 binding model, KD = kdis/kon; for koff: read-out: ACE2 kdis.

In a further experiment the target is binding of RBD to ACE2 (Severe acute respiratory syndrome coronavirus 2, UniProt P0DTC2). Description: biochemical. Also on record: species or system SARS-CoV-2; human.
Where [1] appears, read: association rate, bio-layer interferometry.
Setting [2] is: dissociation rate, bio-layer interferometry.

T1 sequence (Q9BYF1 18-805): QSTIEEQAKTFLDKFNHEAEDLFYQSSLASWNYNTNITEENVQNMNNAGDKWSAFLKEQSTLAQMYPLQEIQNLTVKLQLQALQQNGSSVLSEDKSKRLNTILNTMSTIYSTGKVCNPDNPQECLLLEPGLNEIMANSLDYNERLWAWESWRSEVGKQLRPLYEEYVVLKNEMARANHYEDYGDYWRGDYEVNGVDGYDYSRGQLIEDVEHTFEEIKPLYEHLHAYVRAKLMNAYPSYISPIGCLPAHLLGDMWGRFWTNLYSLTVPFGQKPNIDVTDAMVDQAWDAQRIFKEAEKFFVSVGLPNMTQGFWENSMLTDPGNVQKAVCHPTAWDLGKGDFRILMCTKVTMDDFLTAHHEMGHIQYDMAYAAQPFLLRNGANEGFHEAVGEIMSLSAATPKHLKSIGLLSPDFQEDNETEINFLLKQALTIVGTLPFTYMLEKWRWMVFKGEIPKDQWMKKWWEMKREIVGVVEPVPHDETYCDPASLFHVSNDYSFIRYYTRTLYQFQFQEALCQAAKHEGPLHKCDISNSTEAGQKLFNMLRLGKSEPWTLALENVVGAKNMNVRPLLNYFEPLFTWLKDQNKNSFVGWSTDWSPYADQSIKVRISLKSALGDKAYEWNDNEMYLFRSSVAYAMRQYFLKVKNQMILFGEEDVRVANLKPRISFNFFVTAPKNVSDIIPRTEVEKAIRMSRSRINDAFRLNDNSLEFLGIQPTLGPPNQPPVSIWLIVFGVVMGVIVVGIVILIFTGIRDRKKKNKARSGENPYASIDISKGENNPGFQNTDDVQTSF

Turning to `C[C@H]1[C@H](N2CCSCC2)O[C@@H]2O[C@@]3(C)CC[C@H]4[C@H](C)CC[C@@H]1[C@@]24OO3` [Artemiside], on SARS-CoV-2 RBD peptide, the “interaction with the RBD (result in words)” value (from here on “interaction with the RBD”) is listed as “No interaction”. Besides, on ACE2 (setting [1]), the kon amounted to 4290 M⁻¹ s⁻¹. In addition, at ACE2 (bio-layer interferometry), the affinity, expressed as Kd, was 124 µM. Further, at ACE2 (setting [2]), the koff amounted to 0.533 s⁻¹.

In the case of `COc1ccc2nc3cc(Cl)ccc3c(Nc3cc(CN4CCCC4)c(O)c(CN4CCCC4)c3)c2n1` [Pyronaridine], the figures for the Kd at SARS-CoV-2 RBD peptide (KD for RBD), on SARS-CoV-2 RBD peptide (RBD KD (M)) and at ACE2 (bio-layer interferometry) were 5.7e-05 M, 5.68e-05 M and 51.3 µM, respectively. Further, the koff on SARS-CoV-2 RBD peptide is 0.0339 s⁻¹; on ACE2 (setting [2]) it was 0.0299 s⁻¹. For the same molecule, the values for the kon at SARS-CoV-2 RBD peptide and at ACE2 (setting [1]) were 598 M⁻¹ s⁻¹ and 584 M⁻¹ s⁻¹, respectively. On binding of RBD to ACE2, this molecule returned a half-inhibitory concentration (IC50) of 49.7 ± 4.19 µM.

With `C=C[C@H]1C[N@@]2CC[C@H]1C[C@H]2[C@H](O)c1ccnc2ccc(OC)cc12` [Quinine], the “interaction with the RBD” value on SARS-CoV-2 RBD peptide is given as “No interaction”. In addition, the kon at ACE2 (setting [1]) worked out at 877 M⁻¹ s⁻¹. Moreover, the equilibrium dissociation constant (Kd) on ACE2 (bio-layer interferometry) turned out to be 9.35 µM. The koff at ACE2 (setting [2]) was 0.00819 s⁻¹.

As for `CCN(CC)Cc1cc(Nc2ccnc3cc(Cl)ccc23)ccc1O` [Amodiaquine], binding at ACE2 (bio-layer interferometry) was characterised by a dissociation constant (Kd) of 31.3 µM.

For `C[C@H]1[C@H](N2CCS(=O)(=O)CC2)O[C@@H]2O[C@@]3(C)CC[C@H]4[C@H](C)CC[C@@H]1[C@@]24OO3` [Artemisone], the Kd at SARS-CoV-2 RBD peptide (KD for RBD) was 3.6e-07 M; on SARS-CoV-2 RBD peptide (RBD KD (M)), 3.63e-07 M; on ACE2 (bio-layer interferometry), 681 µM. For the same molecule, the kon on SARS-CoV-2 RBD peptide turned out to be 8.4e+07 M⁻¹ s⁻¹; at ACE2 (setting [1]), 971 M⁻¹ s⁻¹. The IC50 at binding of RBD to ACE2 came out at 63.1 ± 9.63 µM. The koff at ACE2 (setting [2]) was 0.661 s⁻¹.

Consider `CN(C)c1ccc2nc3ccc(=[N+](C)C)cc-3sc2c1` [Methylene blue], for which the affinity at ACE2 (bio-layer interferometry), expressed as Kd, was 475 µM.

As for `C[C@H]1[C@H](OC(=O)CCC(=O)O)O[C@@H]2O[C@@]3(C)CC[C@H]4[C@H](C)CC[C@@H]1[C@@]24OO3` [Artesunate], the “interaction with the RBD” value at SARS-CoV-2 RBD peptide is listed as “No interaction”. At ACE2, the koff was determined as 0.0907 s⁻¹ and the kon worked out at 1290 M⁻¹ s⁻¹.

As for `OC(c1cc(C(F)(F)F)nc2c(C(F)(F)F)cccc12)C1CCCCN1` (stereo not shown) [Mefloquine], on SARS-CoV-2 RBD peptide (RBD KD (M)), the Kd is 0.00605 M. Moreover, the koff on SARS-CoV-2 RBD peptide is 0.861 s⁻¹; at ACE2, 0.0312 s⁻¹. For the same molecule, the kon on SARS-CoV-2 RBD peptide is 142 M⁻¹ s⁻¹; at ACE2 it was 716 M⁻¹ s⁻¹.

Regarding `COc1cc(/C=C/C(=O)CC(=O)/C=C/c2ccc(O)c(OC)c2)ccc1O` [Curcumin], the “interaction with the RBD” value at SARS-CoV-2 RBD peptide was “No interaction”. Further, the kon on ACE2 (setting [1]) is 600 M⁻¹ s⁻¹. This molecule showed a Kd on ACE2 (bio-layer interferometry) of 20.3 µM. In addition, the koff at ACE2 (setting [2]) worked out at 0.0122 s⁻¹.
